# Legend:
# C26 cells = assay: Survival of BALB/c mice inoculated with C26 tumor cells; type: in vivo; conditions: C26 cells in right-hind foot pad
# Procedure: BALB/c mice, female, 8 weeks old at the initiation of experiments were tested. Experiments were performed with 35 mice that were divided into 5 groups.
# Mitomycin C (MMC), injection dose of 10 mg/Kg body.
# C26 cells (originating from mouse colon carcinoma) were grown in cell culture flask essentially as described above under the in vitro experiments. At day 0 of the experiment, the cells were harvested, washed several times with PBS and at the final wash with Hank's buffer, counted and immediately injected subcutaneously into the right-hind foot pad of the mice. The injected dose was 5×10^5 cells/30 μl.
# Saline and the chemotherapeutic formulations were administered on days 5, 12 and 19 of the experiment, by injection into the tail vein. All the injected volumes were 0.1 ml. Lithium, at 1 mM, was given in the drinking water continuously throughout the experiment, from the day of tumor inoculation.
# 35 mice, inoculated with tumor cells, were divides into groups and each group received a different treatment, as described hereinabove and is presented in Table 2 above. The animal survival was monitored continuously, from the first day of tumor inoculation.
# FIG. 8 presents the animal survival, expressed in percentages of the total number of animals in the group.
# C6 cells = conditions: doxorubicin efflux, absence of a chemosensitizer
# Procedure: Cells were grown in monolayers as described above. Several days prior to an experiment the cells (at a density in the range of 5×10^4-5×10^5 cells/ml) were seeded into 6 multiwell culture plates. The experiments were performed when the cells reached confluency.
# At the end of the incubation the media was removed and the cells were incubated with “drug free media”, which consisted of either buffer alone, for cells loaded with drug only, or buffer that contained the chemosensitizer used at the same dose as in the incubation, for the cells loaded with the drug and the chemosensitizer. This replacement of the loading with the “drug free media” was performed in order to create the driving force for drug efflux from the cell into that external media. At designated periods (time points), the external media was collected and thereafter replaced by fresh “drug free media”, in order to maintain a unidirectional flux, from the cell out. The drug concentration was measured in each of the collected media, and in the cells at the end of the experiment.
# [1] = Lithium 1 mM; cited from earlier work
compound,measurement,setting,value
"CO[C@@]12[C@H](COC(N)=O)C3=C(C(=O)C(C)=C(N)C3=O)N1C[C@@H]1N[C@@H]12 [Free MMC, Mitomycin C]",day on which all animals were dead,"C26 cells; MMC 10 mg/Kg i.v. on days 5, 12, 19",33 days
same,day on which animals started dying,"C26 cells; MMC 10 mg/Kg i.v. on days 5, 12, 19, Lithium 1 mM in drinking water where given",29 days
"COc1cccc2c1C(=O)c1c(O)c3c(c(O)c1C2=O)C[C@@](O)(C(=O)CO)C[C@@H]3O[C@H]1C[C@H](N)[C@H](O)[C@H](C)O1 [F-DOX, doxorubicin]",fraction of total intracellular drug load diffused out of the cell after 5 minutes,C6 cells,about 30%
same,time for complete depletion of the cell from the drug,C6 cells,≤ 3 h
[Li] [Lithium],in vivo safety of the in vitro dose,[1],within the in vivo safe range

# — patent US20040006043A1, “Methods, pharmaceutical compositions and pharmaceutical kits for enhancing the therapeutic efficiency of cancer chemotherapeutic agents” (RAMOT UNIVERSITY AUTHORITY FOR APPLIED RESEARCH & …, priority 2002, published 2004)
